Laboratory results taken from the CheMixHub ionic liquid set.

Experiment: xn = mol fraction of the nth substance listed

CCCCCC[n+]1ccn(C)c1.O=[N+]([O-])[O-] + CC(C)O
viscosity [mPa·s], 100 kPa
Conditions | 293.15 K | 298.15 K | 303.15 K | 308.15 K | 313.15 K | 318.15 K | 323.15 K
x1 = 0.0817 | 6.79 | 5 | 3.85 | 2.97 | 2.39 | 2.01 | 1.65
x1 = 0.1594 | 16 | 11.18 | 7.97 | 5.99 | 4.67 | 3.68 | 2.88
x1 = 0.2402 | 32 | 23 | 17 | 12.69 | 9.5 | 7.25 | 5.63
x1 = 0.3493 | 66 | 47.7 | 34 | 26.9 | 21 | 16.7 | 12.75
x1 = 0.4408 | 111 | 79.5 | 55.4 | 43.2 | 34.4 | 27.2 | 21.3
x1 = 0.5609 | 187 | 136.6 | 91 | 70 | 55.8 | 43.5 | 34
x1 = 0.6502 | 266 | 193 | 122.4 | 94.1 | 74.7 | 58.3 | 44.5
x1 = 0.7417 | 363 | 265 | 164.3 | 123.7 | 96 | 75.4 | 58
x1 = 0.8518 | 505 | 372 | 232 | 168.8 | 128.2 | 101.2 | 78.6
x1 = 0.9396 | 664 | 467 | 306 | 218 | 160.5 | 124 | 96.7
x1 = 1 | 804 | 545 | 369 | 258 | 186 | 140.2 | 110.9

CCCC[n+]1ccn(C)c1.O=[N+]([O-])[O-] + CC(C)O
100 kPa
Conditions | viscosity [mPa·s]
293.15 K, x1 = 0.1596 | 6.9
293.15 K, x1 = 0.6506 | 53
293.15 K, x1 = 0.7413 | 70
298.15 K, x1 = 0.1596 | 6
298.15 K, x1 = 0.2405 | 9.3
298.15 K, x1 = 0.7413 | 56
298.15 K, x1 = 0.8515 | 82
303.15 K, x1 = 0.1596 | 5.2
303.15 K, x1 = 0.8515 | 63
303.15 K, x1 = 0.9396 | 90
308.15 K, x1 = 0.2405 | 6.6
308.15 K, x1 = 0.8515 | 51
308.15 K, x1 = 0.9396 | 72
308.15 K, x1 = 1 | 97
313.15 K, x1 = 0.3495 | 9
313.15 K, x1 = 0.9396 | 59
313.15 K, x1 = 1 | 75
318.15 K, x1 = 0.2405 | 5.2
318.15 K, x1 = 0.3495 | 7.9
318.15 K, x1 = 1 | 56
323.15 K, x1 = 0.3495 | 7.2

CC[n+]1ccn(C)c1.F[P-](F)(F)(F)(F)F + CC(C)[C@H](N)C(=O)O + O
100 kPa
Conditions | electrical conductivity, 298.15 K [S/m] | electrical conductivity, 303.15 K [S/m] | electrical conductivity, 308.15 K [S/m] | viscosity, 298.15 K [mPa·s] | viscosity, 303.15 K [mPa·s] | viscosity, 308.15 K [mPa·s]
x2 = 0.0001802, x1 = 1.802e-05 | 0.0115 | 0.0132 | 0.0158 | 0.924 | 0.855 | 0.783
x2 = 0.0001803, x1 = 5.405e-05 | 0.0309 | 0.0338 | 0.0369 | 0.939 | 0.861 | 0.788
x2 = 0.0001804, x1 = 9.008e-05 | 0.0452 | 0.0507 | 0.0552 | 0.954 | 0.865 | 0.792
x2 = 0.0004522, x1 = 1.801e-05 | 0.0121 | 0.0136 | 0.0156 | 0.93 | 0.862 | 0.79
x2 = 0.0004524, x1 = 5.403e-05 | 0.0301 | 0.0329 | 0.0366 | 0.946 | 0.868 | 0.795
x2 = 0.0004526, x1 = 9.005e-05 | 0.046 | 0.0507 | 0.0551 | 0.963 | 0.876 | 0.801
x2 = 0.0007258, x1 = 1.801e-05 | 0.0124 | 0.0141 | 0.016 | 0.936 | 0.869 | 0.797
x2 = 0.0007262, x1 = 5.402e-05 | 0.0308 | 0.0336 | 0.0361 | 0.953 | 0.875 | 0.802
x2 = 0.0007265, x1 = 9.003e-05 | 0.0494 | 0.0548 | 0.0593 | 0.97 | 0.884 | 0.808
x2 = 0.0009976, x1 = 1.8e-05 | 0.0136 | 0.015 | 0.0177 | 0.942 | 0.876 | 0.803
x2 = 0.000998, x1 = 5.4e-05 | 0.0304 | 0.0333 | 0.0354 | 0.96 | 0.883 | 0.811
x2 = 0.0009985, x1 = 9e-05 | 0.0457 | 0.051 | 0.0553 | 0.979 | 0.893 | 0.818
x2 = 0.001273, x1 = 1.8e-05 | 0.0147 | 0.0167 | 0.0199 | 0.948 | 0.882 | 0.811
x2 = 0.001273, x1 = 5.399e-05 | 0.0323 | 0.0341 | 0.0377 | 0.969 | 0.89 | 0.819
x2 = 0.001274, x1 = 8.998e-05 | 0.0487 | 0.0538 | 0.0594 | 0.988 | 0.899 | 0.826
x2 = 0.001546, x1 = 1.799e-05 | 0.0161 | 0.0182 | 0.0218 | 0.954 | 0.888 | 0.818
x2 = 0.001547, x1 = 5.397e-05 | 0.0327 | 0.0343 | 0.0383 | 0.976 | 0.897 | 0.827
x2 = 0.001547, x1 = 8.995e-05 | 0.0455 | 0.0512 | 0.0549 | 0.996 | 0.908 | 0.833

CCCCCC[n+]1ccn(C)c1.O=[N+]([O-])[O-] + CCC(C)O
viscosity [mPa·s], 100 kPa
Conditions | 293.15 K | 298.15 K | 303.15 K | 308.15 K | 313.15 K | 318.15 K | 323.15 K
x1 = 0.0819 | 7.63 | 5.55 | 4.2 | 3.3 | 2.59 | 2.14 | 1.79
x1 = 0.1591 | 14.93 | 10.31 | 7.2 | 5.2 | 3.92 | 3.18 | 2.52
x1 = 0.2414 | 28.5 | 19.3 | 13.16 | 9.1 | 6.75 | 5.3 | 3.9
x1 = 0.3517 | 54.2 | 37.9 | 27.6 | 18 | 13.16 | 10.35 | 7.8
x1 = 0.4412 | 87.8 | 63.7 | 46.7 | 30.6 | 21.5 | 16.77 | 12.8
x1 = 0.5591 | 156.2 | 117.1 | 84.5 | 56.4 | 38 | 29.4 | 23
x1 = 0.6518 | 227 | 172.4 | 117.1 | 81.3 | 58.7 | 43 | 33.6
x1 = 0.7392 | 322 | 238 | 158.7 | 113.3 | 84.5 | 60.9 | 47.3
x1 = 0.8516 | 475 | 342 | 230 | 168.2 | 124.1 | 91.6 | 71.1
x1 = 0.9395 | 641 | 451 | 304 | 218 | 159.2 | 119.8 | 94.4
x1 = 1 | 804 | 545 | 369 | 258 | 186 | 140.2 | 110.9

CCCC[n+]1ccn(C)c1.O=[N+]([O-])[O-] + CCC(C)O
100 kPa
Conditions | viscosity [mPa·s]
293.15 K, x1 = 0.0813 | 5.4
293.15 K, x1 = 0.1595 | 7.3
298.15 K, x1 = 0.1595 | 6.1
298.15 K, x1 = 0.2402 | 8.4
298.15 K, x1 = 0.7398 | 52
298.15 K, x1 = 0.8502 | 79
303.15 K, x1 = 0.1595 | 5.3
303.15 K, x1 = 0.2402 | 7.2
303.15 K, x1 = 0.8502 | 62
308.15 K, x1 = 0.2402 | 6.3
308.15 K, x1 = 0.35 | 9.4
308.15 K, x1 = 0.9399 | 71
308.15 K, x1 = 1 | 97
313.15 K, x1 = 0.2402 | 5.5
313.15 K, x1 = 0.35 | 8.2
313.15 K, x1 = 0.9399 | 57
313.15 K, x1 = 1 | 75
318.15 K, x1 = 0.35 | 7.2
318.15 K, x1 = 0.4403 | 9.7
318.15 K, x1 = 1 | 56
323.15 K, x1 = 0.35 | 6.3
323.15 K, x1 = 0.4403 | 8.5

CCOS(=O)(=O)[O-].CC[n+]1ccn(C)c1 + CCC(C)O
101 kPa
Conditions | viscosity [mPa·s]
298.15 K, x1 = 0.2027 | 6.91
298.15 K, x1 = 0.6944 | 39.6
298.15 K, x1 = 0.7957 | 54.2
303.15 K, x1 = 0.2027 | 6.81
303.15 K, x1 = 0.4906 | 17.37
303.15 K, x1 = 0.8916 | 57.3
308.15 K, x1 = 0.3936 | 9.98
308.15 K, x1 = 0.8916 | 46.8
313.15 K, x1 = 0.2027 | 4.59
313.15 K, x1 = 0.3936 | 9.48
313.15 K, x1 = 0.5916 | 17.67
313.15 K, x1 = 1 | 49.4
318.15 K, x1 = 0.2027 | 4.03
323.15 K, x1 = 0.2937 | 5

CCCCCC[n+]1ccn(C)c1.O=[N+]([O-])[O-] + CCCC(C)O
100 kPa
Conditions | viscosity [mPa·s]
293.15 K, x1 = 0.2408 | 23.7
293.15 K, x1 = 0.7401 | 258
293.15 K, x1 = 0.8508 | 417
298.15 K, x1 = 0.1609 | 10.16
303.15 K, x1 = 0.0814 | 4.67
303.15 K, x1 = 0.7401 | 113.5
308.15 K, x1 = 0.7401 | 75.3
313.15 K, x1 = 0.0814 | 2.69
323.15 K, x1 = 0.0814 | 1.71
323.15 K, x1 = 0.6509 | 16.03
323.15 K, x1 = 1 | 110.9

CCCC[n+]1ccn(C)c1.O=[N+]([O-])[O-] + CCCC(C)O
100 kPa
Conditions | viscosity [mPa·s]
293.15 K, x1 = 0.8501 | 83
303.15 K, x1 = 0.3499 | 6.6
318.15 K, x1 = 0.4399 | 5.9
323.15 K, x1 = 0.5604 | 7.1
323.15 K, x1 = 0.6505 | 9.7

CCCC[N+](CCCC)(CCCC)CCCC.O=S(=O)([O-])O + CCCCCCCCCO
101.3 kPa, x1 = 0.2
Conditions | electrical conductivity [S/m] | viscosity [mPa·s]
293.15 K | 0.00273 | 164.6
298.15 K | 0.00375 | –
303.15 K | 0.00499 | –
308.15 K | 0.00648 | 84.2
313.15 K | 0.0082 | 65.8
